Legend:
deadnettle = test: Test D preemergence; format: in vivo, Lamium amplexicaule; conditions: Lamium amplexicaule, pre-emergence, scale 0-100, read-out: Plant response rating, Deadnettle
Procedure, shortened: (§1)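 In a controlled growth environment, treated and control plants were held 7 to 21 days, then compared visually. Damage was scored 0–100, where 100 means complete control. Sprays contained surfactant in a non-phytotoxic solvent; post-applied plants were at the 1- to 4-leaf stage.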

chamomile = test: Test D preemergence; format: in vivo, Matricaria inodora; conditions: Tripleurospermum inodorum, pre-emergence, scale 0-100, read-out: Plant response rating, Chamomile
Procedure, shortened: as §1

wild buckwheat = test: Test D preemergence; format: in vivo, Polygonum convolvulus; conditions: Fallopia convolvulus, pre-emergence, scale 0-100, read-out: Plant response rating, Buckwheat, Wild
Procedure, shortened: as §1

windgrass [1] = test: Test D preemergence; format: in vivo, Apera spica-venti; conditions: Apera spica-venti, pre-emergence
Procedure, shortened: as §1

windgrass [2] = test: Test D postemergence; format: in vivo, Apera spica-venti; conditions: Apera spica-venti, post-emergence, scale 0 to 100 (0 no effect, 100 complete control), read-out: Plant response rating, Windgrass
Procedure, shortened: as §1

barnyardgrass = test: Test E postemergence; format: in vivo, Echinochloa crus-galli; conditions: Echinochloa crus-galli, post-emergence, read-out: Plant response rating, Barnyardgrass
Procedure, shortened: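 Response was scored visually on a 0-100 scale (100 = complete control) versus controls after 14 to 21 days in the greenhouse. Test chemicals, formulated with surfactant in a non-phytotoxic solvent mixture, had been applied preemergence to seeds in silt loam soil or postemergence to 1- to 4-leaf plants in potting medium.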

kochia = test: Test E postemergence; format: in vivo, Kochia scoparia
Description: Seeds of plant species selected from corn (Zea mays), soybean (Glycine max), velvetleaf (Abutilon theophrasti), lambsquarters (Chenopodium album), wild poinsettia (Euphorbia heterophylla), palmer pigweed (Amaranthus palmeri), waterhemp (common waterhemp, Amaranthus rudis), surinam grass (Brachiaria decumbens), large (Lg) crabgrass (Digitaria sanguinalis), Brazilian crabgrass (Digitaria horizontalis), fall panicum (Panicum dichotomiflorum), giant foxtail (Setaria faberii), green foxtail (Setaria viridis), goosegrass (Eleusine indica), johnsongrass (Sorghum halepense), ragweed (common ragweed, Ambrosia elatior), barnyardgrass (Echinochloa crus-galli), sandbur (southern sandbur, Cenchrus echinatus), arrowleaf sida (Sida rhombifolia), Italian ryegrass (Lolium multiflorum), dayflower (Virginia (VA) dayflower, Commelina virginica), field bindweed (Convolvulus arvensis), morningglory (Ipomoea coccinea), nightshade (eastern black nightshade, Solanum ptycanthum), kochia (Kochia scoparia), yellow nutsedge (Cyperus esculentus), cocklebur (common cocklebur, Xanthium strumarium), smartweed (ladysthumb smartweed, and hairy beggarticks (Bidens pilosa), were planted into a silt loam soil and treated preemergence with test chemicals formulated in a non-phytotoxic solvent mixture which included a surfactant.
At the same time, plants from these crop and weed species and also horseweed (Canada horseweed, Conyza canadensis), waterhemp_RES1, (ALS & Triazine resistant common waterhemp, Amaranthus rudis), and waterhemp_RES2, (ALS & HPPD resistant common waterhemp, Amaranthus rudis) were planted in pots containing Redi-Earth® planting medium (Scotts Company, 14111 Scottslawn Road, Marysville, Ohio 43041) comprising spaghnum peat moss, vermiculite, wetting agent and starter nutrients were treated with postemergence applications of test chemicals formulated in the same manner. Plants ranged in height from 2 to 18 cm for postemergence treatments (1- to 4-leaf stage). Treated plants and controls were maintained in a greenhouse for 14 to 21 days, after which time all species were compared to controls and visually evaluated. Plant response ratings, summarized in Table E, are based on a scale of 0 to 100 where 0 is no effect and 100 is complete control. A dash (-) response means no test result.

[3] = Postemergence, 31 g ai/ha, scale 0 to 100
[4] = Postemergence, 62 g ai/ha, scale 0 to 100
[5] = Postemergence, 125 g ai/ha, scale 0 to 100
[6] = postemergence, 16 g ai/ha, scale 0 to 100, 0 no effect, 100 complete control

Compound: N#Cc1cccc(Oc2ncc(Cl)cn2)c1-n1cc(Br)cn1 [Compound 52, 2-(4-bromo-1H-pyrazol-1-yl)-3-[(5-chloro-2-pyrimidinyl)oxy]benzonitrile]
- pest or weed control at 31 g/ha (deadnettle; 31 g ai/ha): 70%
- pest or weed control at 62 g/ha (deadnettle; 62 g ai/ha): 75%
- pest or weed control at 125 g/ha (deadnettle; 125 g ai/ha): 100%
- pest or weed control at 250 g/ha (deadnettle; 250 g ai/ha): 100%
- pest or weed control at 31 g/ha (chamomile; 31 g ai/ha): 15%
- pest or weed control at 62 g/ha (chamomile; 62 g ai/ha): 65%
- pest or weed control at 125 g/ha (chamomile; 125 g ai/ha): 60%
- pest or weed control at 250 g/ha (chamomile; 250 g ai/ha): 80%
- pest or weed control at 31 g/ha (wild buckwheat; 31 g ai/ha): 10%
- pest or weed control at 62 g/ha (wild buckwheat; 62 g ai/ha): 50%
- pest or weed control at 125 g/ha (wild buckwheat; 125 g ai/ha): 100%
- pest or weed control at 250 g/ha (wild buckwheat; 250 g ai/ha): 100%
- pest or weed control at 31 g/ha (windgrass [1]; 31 g ai/ha, scale 0 (no effect) to 100 (complete control), read-out: Plant response rating, Windgrass): 50%
- pest or weed control at 62 g/ha (windgrass [1]; 62 g ai/ha, scale 0-100, read-out: Plant response rating, Windgrass): 70%
- pest or weed control at 125 g/ha (windgrass [1]; 125 g ai/ha, scale 0-100, read-out: Plant response rating, Windgrass): 100%
- pest or weed control at 250 g/ha (windgrass [1]; 250 g ai/ha, scale 0-100, read-out: Plant response rating, Windgrass): 100%
- pest or weed control at 31 g/ha (windgrass [2]; 31 g ai/ha): 15%
- pest or weed control at 62 g/ha (windgrass [2]; 62 g ai/ha): 20%
- pest or weed control at 125 g/ha (windgrass [2]; 125 g ai/ha): 25%
- pest or weed control at 250 g/ha (windgrass [2]; 250 g ai/ha): 40%
- pest or weed control at 31 g/ha (barnyardgrass; [3]): 10%
- pest or weed control at 62 g/ha (barnyardgrass; [4]): 20%
- pest or weed control at 125 g/ha (barnyardgrass; [5]): 30%
- pest or weed control at 16 g/ha (barnyardgrass; [6]): 5%
- Plant response rating, Kochia (kochia; [3]): 50
- Plant response rating, Kochia (kochia; [4]): 55
- Plant response rating, Kochia (kochia; [5]): 80
- Plant response rating, Kochia (kochia; [6]): 40

— patent publication US9695155B2, “Herbicidal substituted pyrimidinyloxy benzene compounds” (E. I. DU PONT DE NEMOURS AND COMPANY, priority 2013, dated 2017)
